Experimental data taken from patent US20220107328A1, “METHODS OF TREATING LIVER DISEASES” (Camp4 Therapeutics Corporation, priority 2018, published 2022).
Where a name gives a salt, the structure may show the parent alone.

Columns and labels:
PNPLA3 mRNA [1] = test: qRT-PCR of PNPLA3 mRNA in human primary hepatic stellate cells; type: cell-based; conditions: for PNPLA3 mRNA remaining after treatment compared to untreated cells / mrna remaining at 1 µM / mrna remaining at 10 µM: Human Stellate; for mrna remaining at 1 µM / mrna remaining at 10 µM: read-out: PNPLA3 mRNA remaining after treatment compared to untreated cells; for Relative PNPLA3 mRNA expression: stellate cells, Table 37; for Primary Stellate cells PNPLA3 (fold change in mRNA expression): 3 μM, relative to GAPDH
PNPLA3 mRNA [2] = test: qRT-PCR of PNPLA3 mRNA in compound-treated primary human hepatocytes; conditions: for mrna remaining at 1 µM / mrna remaining at 10 µM: Homo sapiens, Hepatocyte; for Relative PNPLA3 mRNA expression: primary human hepatocytes, Table 35; for Primary Hepatocytes 4178 PNPLA3 (fold change in mRNA expression): donor 4178, 3 μM; for Primary Hepatocytes 4178 PNPLA3 (fold change in mRNA expression) / Primary Hepatocytes 4282 PNPLA3 (fold change in mRNA expression): relative to GUSB; for Primary Hepatocytes 4282 PNPLA3 (fold change in mRNA expression): donor 4282, 3 μM; for Relative PINPLA3 mRNA: hepatocytes
Experimental: Cryopreserved hepatocytes were cultured in plating media for 16 hours, transferred to maintenance media for 4 hours. Cultured on serum-free media for 2 hours, then a compound was added. The hepatocytes were maintained on the serum-free media for 16 hours prior to gene expression analysis.
Human hepatocytes cultured as described above were plated in 24-well format, adding 375,000 cells per well in a volume of 500 μl plating medium. Four hours before treatment, cells were washed with PBS and the medium was changed to either: fresh maintenance medium (complete) or modified maintenance medium.
Compound stocks were prepared at 1000× final concentration and added in a 2-step dilution to the medium to reduce risk of a compound precipitating out of solution when added to the cells, and to ensure reasonable pipetting volumes. One at a time, each compound was first diluted 10-fold in warm (about 37° C.) modified maintenance medium (initial dilution=ID), mixed by vortexing, and the ID was diluted 100-fold into the cell culture (e.g. 5.1 μl into 1 well of a 24-well plate containing 0.5 mL medium). The plate was mixed by carefully swirling and after all wells were treated and returned to the incubator overnight. If desired, separate plates/wells were treated with vehicle-only controls and/or positive controls. If using multi-well plates, controls were included on each plate. After about 18 hours, cells were harvested for further analysis, e.g., ChIP-seq, RNA-seq, ATAC-seq, etc.
Analysis of the fold changes in expression as measured by qRT-PCR were performed using the technique below. The control was DMSO, and the treatment was the selected compound (CPD). The internal control was GAPDH or B-Actin (or otherwise indicated), and the gene of interest is the target. First, the averages of the 4 conditions were calculated for normalization: DMSO:GAPDH, DMSO:Target, CPD: GAPDH, and CPD:Target. Next, the ΔCT of both control and treatment were calculated to normalize to internal control (GAPDH) using (DMSO:Target)−(DMSO:GAPDH)=ΔCT control and (CPD:Target)−(CPD: GAPDH)=ΔCT experimental. Then, the ΔΔCT was calculated by ΔCT experimental−ΔCT control. The Expression Fold Change (or Relative Quantification, abbreviated as RQ) was calculated by 2−(ΔΔCT) (2-fold expression change was shown by RNA-Seq results provided herein).
The aim of the validation studies was to test the identified compounds from key pathways, and expand the compound franchise to identify other potential hits. Candidate compounds were subjected to validation with qRT-PCR in human hepatocytes. qRT-PCR was performed on samples of primary human hepatocytes from a second donor treated with the candidate compounds. Compounds were tested at concentrations ranging from 0.01 μM to 50 μM, with the majority tested at 10 μM.
Primary human hepatocytes and stellate cells were also incubated with inhibitors of the TGFβ pathway and PNPLA3 gene expression changes assessed via qRT-PCR as previously described. In addition, primary hepatocytes and stellate cells were treated with TGFβ-ligand alone or with selected the small molecule inhibitors for 18 hours and subsequently harvested. for gene expression assays.
The other set was harvest for mRNA processing as previously described.

PNPLA3 mRNA [3] = test: qRT-PCR of PNPLA3 mRNA in compound-treated mouse hepatocytes; type: cell-based; conditions: for Relative PNPLA3 mRNA levels: mouse hepatocytes, 1 μM, normalized to ACTB
COL1A1 mRNA = test: qRT-PCR of COL1A1 mRNA in human primary hepatic stellate cells; type: cell-based; conditions: 3 μM, relative to GAPDH
Experimental: Cells were plated at a density of 17000 cells/well in a 96-well plate and allowed to adhere overnight. The following day cell culture media was replenished with the indicated concentration(s) of compound for 18 hours. […] Medium was removed after 18 hours and cells were processed for further analysis, e.g. qRT-PCR.
Analysis of the fold changes in expression as measured by qRT-PCR were performed using the technique below. The control was DMSO, and the treatment was the selected compound (CPD). The internal control was GAPDH or B-Actin (or otherwise indicated), and the gene of interest is the target. First, the averages of the 4 conditions were calculated for normalization: DMSO:GAPDH, DMSO:Target, CPD: GAPDH, and CPD:Target. Next, the ΔCT of both control and treatment were calculated to normalize to internal control (GAPDH) using (DMSO:Target)−(DMSO:GAPDH)=ΔCT control and (CPD:Target)−(CPD: GAPDH)=ΔCT experimental. Then, the ΔΔCT was calculated by ΔCT experimental−ΔCT control.
Candidate compounds were tested in stellate cells for their ability to modulate PNPLA3 and COL1A1. Stellate cells were treated with serial dilutions of the compounds, ranging from 0.1 μM to 100 μM. Changes in PNPLA3 (or COL1A1) mRNA levels in stellate cells were analyzed with qRT-PCR.

PCSK9 mRNA = test: qRT-PCR of PCSK9 mRNA in primary hepatocytes; type: cell-based, human; conditions: donor 4178, 3 μM, relative to GUSB
[4] = read-out: PNPLA3 mRNA remaining after treatment compared to untreated cells, H Hep Donor-3, 10 uM
[5] = read-out: PNPLA3 mRNA remaining after treatment compared to untreated cells, H Hep Donor-4, 1 uM
[6] = read-out: PNPLA3 mRNA remaining after treatment compared to untreated cells, H Hep Donor-4, 10 uM
[7] = read-out: PNPLA3 mRNA remaining after treatment compared to untreated cells, H Hep Donor-5, 1 uM
[8] = read-out: PNPLA3 mRNA remaining after treatment compared to untreated cells, H Hep Donor-5, 10 uM
[9] = Hepatocyte, Mouse hepatocytes, 10 uM, read-out: PNPLA3 mRNA remaining after treatment compared to untreated cells

| Compound | Primary Stellate cells PNPLA3 (fold change in mRNA expression) (PNPLA3 mRNA [1]) | Primary Hepatocytes 4178 PNPLA3 (fold change in mRNA expression) (PNPLA3 mRNA [2]) | Primary Hepatocytes 4282 PNPLA3 (fold change in mRNA expression) (PNPLA3 mRNA [2]) | Primary Stellate cells COL1A1 (fold change in mRNA expression) (COL1A1 mRNA) | Primary Hepatocytes 4178 PCSK9 (fold change in mRNA expression) (PCSK9 mRNA) | also measured |
| --- | --- | --- | --- | --- | --- | --- |
| COc1cccc2cc(-c3nc([C@H]4CC[C@H](C(=O)O)CC4)n4ncnc(N)c34)[nH]c12 [OSI-027/ASP7486] |  |  |  |  |  | PNPLA3 mRNA remaining after treatment compared to untreated cells (PNPLA3 mRNA [1]; 1 uM): 0.2; PNPLA3 mRNA remaining after treatment compared to untreated cells (PNPLA3 mRNA [1]; 10 uM): 0.65; PNPLA3 mRNA remaining after treatment compared to untreated cells (PNPLA3 mRNA [2]; H Hep Donor-1, 1 uM (stated in cell)): 0.3 (1 uM); PNPLA3 mRNA remaining after treatment compared to untreated cells (PNPLA3 mRNA [2]; H Hep Donor-2, 1 uM (stated in cell)): 0.4 (1 uM); PNPLA3 mRNA remaining after treatment compared to untreated cells (PNPLA3 mRNA [2]; H Hep Donor-3, 10 uM): 0.55; PNPLA3 mRNA remaining after treatment compared to untreated cells (PNPLA3 mRNA [2]; H Hep Donor-4, 1 uM): 0.6; PNPLA3 mRNA remaining after treatment compared to untreated cells (PNPLA3 mRNA [2]; H Hep Donor-4, 10 uM): 0.38; PNPLA3 mRNA remaining after treatment compared to untreated cells (PNPLA3 mRNA [2]; H Hep Donor-5, 1 uM): 0.5; PNPLA3 mRNA remaining after treatment compared to untreated cells (PNPLA3 mRNA [2]; H Hep Donor-5, 10 uM): 0.2; PNPLA3 mRNA remaining after treatment compared to untreated cells (PNPLA3 mRNA [3]; Mouse hepatocytes, 1 uM): 0.3; PNPLA3 mRNA remaining after treatment compared to untreated cells (PNPLA3 mRNA [3]; Mouse hepatocytes, 10 uM): 0.35 |
| CC(C)c1cc(CNc2nc(Nc3cc(C4CC4)[nH]n3)cc(N3CCN(C)CC3)n2)on1 [XL228] |  |  |  |  |  | mrna remaining at 1 µM (PNPLA3 mRNA [1]; 1 uM): 80%; mrna remaining at 10 µM (PNPLA3 mRNA [1]; 10 uM): 70%; mrna remaining at 1 µM (PNPLA3 mRNA [2]; read-out: PNPLA3 mRNA remaining after treatment compared to untreated cells, H Hep Donor-1, 1 uM (stated in cell)): 40%; mrna remaining at 10 µM (PNPLA3 mRNA [2]; [4]): 30%; mrna remaining at 1 µM (PNPLA3 mRNA [2]; [5]): 55%; mrna remaining at 10 µM (PNPLA3 mRNA [2]; [6]): 55%; mrna remaining at 1 µM (PNPLA3 mRNA [2]; [7]): 55%; mrna remaining at 10 µM (PNPLA3 mRNA [2]; [8]): 25%; mrna remaining at 1 µM (PNPLA3 mRNA [3]; Hepatocyte, Mouse hepatocytes, 1 uM, read-out: PNPLA3 mRNA remaining after treatment compared to untreated cells): 40%; mrna remaining at 10 µM (PNPLA3 mRNA [3]; [9]): 12% |
| Cc1cccc(-c2nn3c(c2-c2ccnc4ccc(C(N)=O)cc24)CCC3)n1 [LY2157299 Galunisertib] |  |  |  |  |  | mrna remaining at 1 µM (PNPLA3 mRNA [1]; 1 uM): 65%; mrna remaining at 10 µM (PNPLA3 mRNA [1]; 10 uM): 100%; mrna remaining at 10 µM (PNPLA3 mRNA [2]; read-out: PNPLA3 mRNA remaining after treatment compared to untreated cells, H Hep Donor-1, 10 uM): 50%; mrna remaining at 10 µM (PNPLA3 mRNA [2]; read-out: PNPLA3 mRNA remaining after treatment compared to untreated cells, H Hep Donor-2, 10 uM): 70%; mrna remaining at 10 µM (PNPLA3 mRNA [2]; [4]): 80%; mrna remaining at 1 µM (PNPLA3 mRNA [2]; [5]): 75%; mrna remaining at 10 µM (PNPLA3 mRNA [2]; [6]): 50%; mrna remaining at 1 µM (PNPLA3 mRNA [2]; [7]): 55%; mrna remaining at 10 µM (PNPLA3 mRNA [2]; [8]): 50%; mrna remaining at 10 µM (PNPLA3 mRNA [3]; [9]): 102% |
| Cn1cc(-c2nc(N[C@@H]3CCCC[C@@H]3N)c(F)c3c2C(=O)NC3)cn1 [TAK-659] |  |  |  |  |  | Relative PNPLA3 mRNA levels (PNPLA3 mRNA [2]; Syk pathway inhibitors, 10 μM, human hepatocytes, normalized to B2M, mean of three replicates ± standard deviation): 0.44 ± 0.11; Relative PNPLA3 mRNA levels (PNPLA3 mRNA [3]): 0.31 ± 0.12 |
| COc1cc2c(cc1OC)CN(C(=O)/C=C/c1c(-c3ccccc3)n(C)c3ncccc13)CC2 [SIS3] |  |  |  |  |  | Relative PNPLA3 mRNA expression (PNPLA3 mRNA [1]; 0.01 uM): 1.49 ± 0.09; Relative PNPLA3 mRNA expression (PNPLA3 mRNA [1]; 0.1 uM): 1.38 ± 0.19; Relative PNPLA3 mRNA expression (PNPLA3 mRNA [1]; 1 uM): 0.77 ± 0.03; Relative PNPLA3 mRNA expression (PNPLA3 mRNA [1]; 10 uM): 7.95 ± 2.29; PNPLA3 mRNA remaining after treatment compared to untreated cells (PNPLA3 mRNA [2]; H Hep Donor-1, 10 uM): 0.2; PNPLA3 mRNA remaining after treatment compared to untreated cells (PNPLA3 mRNA [2]; H Hep Donor-2, 10 uM): 0.55; Relative PNPLA3 mRNA expression (PNPLA3 mRNA [2]; 3.3 uM): 1.358 ± 0.3303; Relative PNPLA3 mRNA expression (PNPLA3 mRNA [2]; 10 uM): 1.011 ± 0.2574; PNPLA3 mRNA remaining after treatment compared to untreated cells (PNPLA3 mRNA [3]; Mouse hepatocytes, 10 uM): 0.50 |
| c1cncc(CN2CCC(n3ncc4c(N5CCOCC5)nc(-c5ccc6[nH]ccc6c5)nc43)CC2)c1 [WAY600] |  |  |  |  |  | Relative PNPLA3 mRNA levels (PNPLA3 mRNA [3]): 0.67 ± 0.21 |
| CO[C@H]1C[C@@H]2CC[C@@H](C)[C@@](O)(O2)C(=O)C(=O)N2CCCC[C@H]2C(=O)O[C@H]([C@H](C)C[C@@H]2CC[C@@H](OP(C)(C)=O)[C@H](OC)C2)CC(=O)[C@H](C)/C=C(\C)[C@@H](O)[C@@H](OC)C(=O)[C@H](C)C[C@H](C)/C=C/C=C/C=C/1C [Deforolimus] |  |  |  |  |  | Relative PNPLA3 mRNA levels (PNPLA3 mRNA [3]): 0.30 ± 0.10 |
| C[C@H](NC(=O)c1c(N)nn2cccnc12)c1cc2cccc(C#Cc3cnn(C)c3)c2c(=O)n1-c1ccccc1 [IPI-549] | 0.75 | 0.68 | 0.68 | 1.00 | 0.74 |  |
| Nc1nc2cc(-c3ccc4ncc(C(=O)N5CCOCC5)n4c3)ccc2o1 [MLN1117] | 0.70 | 1.57 | 0.97 | 1.14 | 0.69 |  |
| O=C1OC(COc2ccccc2[N+](=O)[O-])CC1Cc1ccccc1 (stereo not shown) [Compound 3BDO] | 0.91 | 1.10 | 1.00 | 1.03 | 1.01 |  |
| Cc1nc(-c2cn3c(n2)-c2ccc(-c4cnn(C(C)(C)C(N)=O)c4)cc2OCC3)n(C(C)C)n1 [Taselisib (GDC 0032)] | 0.77 | 0.72 | 0.62 | 1.32 | 0.67 |  |
| Nc1cc(C(F)(F)F)c(-c2cc(N3CCOCC3)nc(N3CCOCC3)n2)cn1 [NVP-BKM120] | 0.43 | 0.60 | 0.70 | 0.66 | 0.75 |  |
| COc1ncc(-c2ccc3nccc(-c4ccnnc4)c3c2)cc1NS(=O)(=O)c1ccc(F)cc1F [GSK2126458] | 0.90 | 0.92 | 0.80 | 0.42 | 0.91 | Relative PINPLA3 mRNA (PNPLA3 mRNA [2]; 1 uM): 0.395; Relative PINPLA3 mRNA (PNPLA3 mRNA [2]; 10 uM): 0.800 |
| Nc1cc(C(F)(F)F)c(-c2cc(N3CCOCC3)nc(N3CCOCC3)n2)cn1 [NVP-BKM120 (Hydrochloride)] | 0.43 | 0.56 | 0.70 | 0.70 | 0.50 |  |
| CCn1c(=O)c(-c2cc[nH]n2)cc2c(C)nc(N)nc21 [Voxtalisib] |  |  |  |  |  | Relative PNPLA3 mRNA levels (PNPLA3 mRNA [3]): 0.31 ± 0.08 |
| Nc1cc(C(F)(F)F)c(-c2nc(N3CCOCC3)nc(N3CCOCC3)n2)cn1 [PQR309] | 0.88 | 0.47 | 0.60 | 0.81 | 0.50 | Relative PINPLA3 mRNA (PNPLA3 mRNA [2]; 0.1 uM): 1.353; Relative PINPLA3 mRNA (PNPLA3 mRNA [2]; 0.3 uM): 0.8236; Relative PINPLA3 mRNA (PNPLA3 mRNA [2]; 1 uM): 0.5267; Relative PINPLA3 mRNA (PNPLA3 mRNA [2]; 3 uM): 0.4657; PNPLA3 expression by reported compound specificity (in words) (PNPLA3 mRNA [2]; summary of mTOR/PI3K inhibitor testing): most robust PNPLA3 inhibition |
| CCOC(=O)C1=C(N)Oc2ccc(Cl)cc2C1C(C#N)C(=O)OCC (stereo not shown) [SC79] | 0.85 | 1.10 | 0.94 | 0.98 | 1.11 |  |
| COc1ccc(-c2nc(N3CCOCC3)c3sc(CN(C)c4ncc(C(=O)NO)cn4)cc3n2)cn1 [CUDC-907] | 1.33 | 0.50 | 0.50 | 0.41 | 0.83 |  |
| C[C@H](Nc1ncnc2[nH]cnc12)c1nc2ccc(F)cc2c(=O)n1-c1ccccc1 [Acalisib] | 0.91 | 1.00 | 1.00 | 0.96 | 0.99 |  |
| Nc1cc(C(F)(F)F)c(-c2cc(N3CCOCC3)nc(N3CCOCC3)n2)cn1 [Buparlisib (BKN120, NVE-BKM120)] | 0.50 | 0.52 | 0.60 | 0.81 | 0.46 |  |
